Reference: paper PMC9318203, “Squaramide-Tethered Sulfonamides and Coumarins: Synthesis, Inhibition of Tumor-Associated CAs IX and XII and Docking Simulations” (International Journal of Molecular Sciences, 2022)
“And” between values parts separate entries of the source, which are not always exact repeats. Equal entries are not always repeated.

Columns and labels:
hCA IX = molecular target: T1, hCA IX (Homo sapiens, UniProt Q16790); experiment: stopped-flow CO2 hydrase assay, hCA IX; assay type: biochemical; details: for S.I. I/IX: Ki (CA I)/Ki (CA IX); for S.I. II/IX: Ki (CA II)/Ki (CA IX)
T1 construct: made in house
Description: (§1) For that purpose, the stopped-flow CO2 hydration assay was used (Table 1).
(§2) The inhibitory properties of title compounds against CAs were determined using the stopped-flow CO2 hydrase assay, as previously reported.

hCA II = molecular target: T2, hCA II (Homo sapiens, UniProt P00918); experiment: stopped-flow CO2 hydrase assay, hCA II; assay type: biochemical
T2 construct: made in house
Description: as §1, §2

hCA I = molecular target: T3, hCA I (Homo sapiens, UniProt P00915); experiment: stopped-flow CO2 hydrase assay, hCA I; assay type: biochemical
T3 construct: made in house
T3 sequence (P00915 whole entry): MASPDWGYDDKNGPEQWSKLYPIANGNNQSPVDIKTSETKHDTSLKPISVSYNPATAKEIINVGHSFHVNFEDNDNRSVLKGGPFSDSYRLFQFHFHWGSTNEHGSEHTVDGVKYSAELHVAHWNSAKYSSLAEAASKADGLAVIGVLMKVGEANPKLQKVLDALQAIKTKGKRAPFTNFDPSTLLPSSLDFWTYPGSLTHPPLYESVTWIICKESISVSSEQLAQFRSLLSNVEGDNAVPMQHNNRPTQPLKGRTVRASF
Description: as §1, §2

hCA XII = molecular target: T4, hCA XII (Homo sapiens, UniProt O43570); experiment: stopped-flow CO2 hydrase assay, hCA XII; assay type: biochemical; details: for S.I. I/XII: Ki (CA I)/Ki (CA XII); for S.I. II/XII: Ki (CA II)/Ki (CA XII)
T4 construct: made in house
T4 sequence (O43570 25-354): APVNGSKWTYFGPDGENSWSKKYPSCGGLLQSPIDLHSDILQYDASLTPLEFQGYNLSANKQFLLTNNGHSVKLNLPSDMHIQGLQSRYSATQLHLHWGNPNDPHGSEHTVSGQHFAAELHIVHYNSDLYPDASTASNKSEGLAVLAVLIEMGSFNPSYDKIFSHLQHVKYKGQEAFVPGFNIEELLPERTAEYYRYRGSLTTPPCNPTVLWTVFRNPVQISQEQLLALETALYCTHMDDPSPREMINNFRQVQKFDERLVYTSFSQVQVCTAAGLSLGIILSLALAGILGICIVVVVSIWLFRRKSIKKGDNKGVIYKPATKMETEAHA
Description: as §1, §2

[1] = tested on: A549, HBL-100, HeLa, SW1573, T-47D, WiDr; experiment: antiproliferative assay (NCI protocol), panel of six human tumor cell lines; assay type: cell-based; details: all the cell lines, normoxic conditions
Description: Some representative compounds (5a–e, 16b, 16e–i) were also tested as potential antiproliferative agents against a panel of six human tumor cell lines: A549 (non-small cell lung), HBL-100 (breast), HeLa (cervix), SW1573 (non-small cell lung), T-47D (breast), WiDr (colon). Unfortunately, no relevant activity was found for the tested compounds.
Minor modifications of the US National Cancer Institute (NCI) protocol were used.

[2] = coumarin-containing squaramides, incubation time 6 h, mean from three assays
[3] = sulfonamido-containing squaramides, mean from 3 assays, stopped flow

Compound	Ki (hCA IX; [2]) [µM]	Ki (hCA II; [2]) [µM]	Ki (hCA I; [2]) [µM]	Ki (hCA XII; [2]) [µM]	melting point [°C]	S.I. I/IX (hCA IX)	S.I. II/IX (hCA IX)	S.I. (range of the selectivity indexes) (hCA IX; range over I/IX, I/XII, II/IX, II/XII)	Ki (hCA IX; [3]) [µM]	Ki (hCA II; [3]) [µM]	Ki (hCA I; [3]) [µM]	S.I. I/XII (hCA XII)	S.I. II/XII (hCA XII)	Ki (hCA XII; [3])	fold decreased activity compared with 16b, CA IX (hCA IX; vs 16b)	fold decreased activity compared with 16b, CA XII (hCA XII; vs 16b)	GI50 [1] [µM]
NS(=O)(=O)c1ccc(CCNc2c(Nc3ccc(Br)cc3)c(=O)c2=O)cc1 [Compound 5d, 3-(p-Bromophenyl)amino-4-[2′-(4″-sulfonamidophenyl)ethylamino]cyclobut-3-ene-1,2-dione]	–	–	–	–	> 250	6.8	14	6.8–14	0.0676	0.91	0.457	5.3	11	0.0855 µM	–	–	–
NS(=O)(=O)c1ccc(CCNc2c(Nc3ccccc3)c(=O)c2=O)cc1 [Compound 5a, 3-Phenylamino-4-[2′-(4″-sulfonamidophenyl)ethylamino]cyclobut-3-ene-1,2-dione]	–	–	–	–	> 250	2.8	9.6	–	0.0753	0.72	0.211	2.2	7.4	0.0968 µM	–	–	–
NS(=O)(=O)c1ccc(CCNc2c(Nc3ccc(Cl)cc3)c(=O)c2=O)cc1 [Compound 5c, 3-(p-Chlorophenyl)amino-4-[2′-(4″-sulfonamidophenyl)ethylamino]cyclobut-3-ene-1,2-dione]	–	–	–	–	> 250	1.8	1.7	–	0.49	0.819	0.881	9.8	9.1	0.0902 µM	–	–	–
NS(=O)(=O)c1ccc(Nc2c(Nc3ccccc3)c(=O)c2=O)cc1 [Compound 8, 3-Phenylamino-4-[4′-(sulfonamidophenyl)]aminocyclobut-3-ene-1,2-dione]	–	–	–	–	> 250	5.0	3.4	–	0.0195	0.0659	0.098	15	10	0.00657 µM	–	–	–
NS(=O)(=O)c1cccc(Nc2c(Nc3ccccc3)c(=O)c2=O)c1 [Compound 11]	–	–	–	–	–	20	3.2	–	0.0294	0.0955	0.58	63	10	0.0095 µM and 0.00915 µM	–	–	–
NS(=O)(=O)c1ccc(CCNc2c(Nc3ccc(I)cc3)c(=O)c2=O)cc1 [Compound 5e, 3-(p-Iodophenyl)amino-4-[2′-(4″-sulfonamidophenyl)ethylamino]cyclobut-3-ene-1,2-dione]	–	–	–	–	> 250	5.1	9.2	–	0.0927	0.856	0.471	5.2	9.5	0.0903 µM	–	–	–
COc1c(Nc2cccc(S(N)(=O)=O)c2)c(=O)c1=O [Compound 10, 3-Methoxy-4-[3′-(sulfonamidophenyl)]aminocyclobut-3-ene-1,2-dione]	–	–	–	–	–	3.0	1.6	–	0.0262	0.0409	0.0799	14	7.1	0.00578 µM	–	–	–
COc1ccc(Nc2c(NCCc3ccc(S(N)(=O)=O)cc3)c(=O)c2=O)cc1 [Compound 5b, 3-(p-Methoxyphenyl)amino-4-[2′-(4″-sulfonamidophenyl)ethylamino]cyclobut-3-ene-1,2-dione]	–	–	–	–	> 250	4.0	7.8	–	0.0925	0.724	0.373	2.4	4.6	0.158 µM	–	–	–

Further lines, with some results ahead:

Ki (hCA IX; [2]) [µM]	Ki (hCA II; [2]) [µM]	Ki (hCA I; [2]) [µM]	Ki (hCA XII; [2]) [µM]	melting point [°C]	S.I. I/IX (hCA IX)	S.I. II/IX (hCA IX)	S.I. (range of the selectivity indexes) (hCA IX; range over I/IX, I/XII, II/IX, II/XII)	Ki (hCA IX; [3]) [µM]	Ki (hCA II; [3]) [µM]	Ki (hCA I; [3]) [µM]	S.I. I/XII (hCA XII)	S.I. II/XII (hCA XII)	Ki (hCA XII; [3])	fold decreased activity compared with 16b, CA IX (hCA IX; vs 16b)	fold decreased activity compared with 16b, CA XII (hCA XII; vs 16b)	Compound	GI50 [1] [µM]
0.132	> 10	> 10	0.0696	–	–	–	–	–	–	–	–	–	–	–	–	Cc1c(C)c2ccc(OCCCCCNc3c(Nc4ccc(Br)cc4)c(=O)c3=O)cc2oc1=O [Compound 16n, 3-[(4′-Bromophenyl)amino]-4-{[5″-(3‴,4‴-dimethyl-2‴-oxo-2‴H-chromen-7″-yl)oxypentyl]amino}cyclobut-3-ene-1,2-dione]	–
0.0462	> 10	> 10	0.0139	248 to 249	–	–	–	–	–	–	–	–	–	–	–	Cc1cc(=O)oc2cc(OCCCCCNc3c(Nc4ccc(Br)cc4)c(=O)c3=O)ccc12 [Compound 16h, 3-[(4′-Bromophenyl)amino]-4-{[5″-(4‴-methyl-2‴-oxo-2‴H-chromen-7‴-yl)oxypentyl]amino}cyclobut-3-ene-1,2-dione]	–
0.0181	> 10	> 10	0.00791	178 to 179	–	–	–	–	–	–	–	–	–	–	–	Cc1cc(=O)oc2cc(OCCCCCCCCCCCCNc3c(Nc4ccccc4)c(=O)c3=O)ccc12 [Compound 16d, 3-{[12′-((4″-Methyl-2″-oxo-2″H-chromen-7″-yl)oxy)dodecyl]amino}-4-phenylaminocyclobut-3-ene-1,2-dione]	–
0.0192	> 10	> 10	0.00723	200 to 201	–	–	–	–	–	–	–	–	–	–	–	Cc1cc(=O)oc2cc(OCCCCCCCCCNc3c(Nc4ccccc4)c(=O)c3=O)ccc12 [Compound 16c, 3-{[9′-((4″-Methyl-2″-oxo-2″H-chromen-7″-yl)oxy)nonyl]amino}-4-phenylaminocyclobut-3-ene-1,2-dione]	–
0.107	> 10	> 10	0.0583	> 250	–	–	–	–	–	–	–	–	–	–	–	Cc1c(C)c2ccc(OCCCCCNc3c(Nc4ccccc4)c(=O)c3=O)cc2oc1=O [Compound 16j, 3-{[5′-((3″,4″-Dimethyl-2″-oxo-2″H-chromen-7″-yl)oxy)pentyl]amino}-4-phenylaminocyclobut-3-ene-1,2-dione]	–
0.0437	> 10	> 10	0.0159	–	–	–	–	–	–	–	–	–	–	–	–	Cc1cc(=O)oc2cc(OCCCCCNc3c(Nc4ccc(F)cc4)c(=O)c3=O)ccc12 [Compound 16f, 3-[(4′-Fluorophenyl)amino]-4-{[5″-(4‴-methyl-2‴-oxo-2‴H-chromen-7‴-yl)oxypentyl]amino}cyclobut-3-ene-1,2-dione]	> 100
0.0653	> 10	> 10	0.0244	225 to 227	–	–	–	–	–	–	–	–	–	–	–	Cc1cc(=O)oc2cc(OCCCCCNc3c(Nc4ccc(Cl)cc4)c(=O)c3=O)ccc12 [Compound 16g, 3-[(4′-Chlorophenyl)amino]-4-{[5″-(4‴-methyl-2‴-oxo-2‴H-chromen-7‴-yl)oxypentyl]amino}cyclobut-3-ene-1,2-dione]	–
0.0865	> 10	> 10	0.0454	> 250	–	–	–	–	–	–	–	–	–	–	–	COc1ccc(Nc2c(NCCCCCOc3ccc4c(C)c(C)c(=O)oc4c3)c(=O)c2=O)cc1 [Compound 16k, 3-{[5′-(3″,4″-Dimethyl-2″-oxo-2″H-chromen-7″-yl)oxypentyl]amino}-4-(4‴-methoxyphenylamino)cyclobut-3-ene-1,2-dione]	–
0.0966	> 10	> 10	0.043	> 250	–	–	–	–	–	–	–	–	–	–	–	Cc1c(C)c2ccc(OCCCCCNc3c(Nc4ccc(Cl)cc4)c(=O)c3=O)cc2oc1=O [Compound 16m, 3-[(4′-Chlorophenyl)amino]-4-{[5″-(3‴,4‴-dimethyl-2‴-oxo-2‴H-chromen-7‴-yl)oxypentyl]amino}cyclobut-3-ene-1,2-dione]	–
0.0793	> 10	> 10	0.0421	> 250	–	–	–	–	–	–	–	–	–	–	–	Cc1cc(=O)oc2cc(OCCCNc3c(Nc4ccccc4)c(=O)c3=O)ccc12 [Compound 16a, 3-{[3′-((4″-Methyl-2″-oxo-2″H-chromen-7″-yl)oxy)propyl]amino}-4-phenylaminocyclobut-3-ene-1,2-dione]	–
0.113	> 10	> 10	0.0629	> 250	–	–	–	–	–	–	–	–	–	–	–	Cc1c(C)c2ccc(OCCCCCNc3c(Nc4ccc(F)cc4)c(=O)c3=O)cc2oc1=O [Compound 16l, 3-{[5′-(3″,4″-Dimethyl-2″-oxo-2″H-chromen-7″-yl)oxypentyl]amino}-4-(4‴-fluorophenylamino)cyclobut-3-ene-1,2-dione]	–
0.0921	> 10	> 10	0.0508	> 250	–	–	–	–	–	–	–	–	–	–	–	Cc1c(C)c2ccc(OCCCCCNc3c(Nc4ccc(I)cc4)c(=O)c3=O)cc2oc1=O [Compound 16o, 3-{[5′-(3″,4″-Dimethyl-2″-oxo-2″H-chromen-7″-yl)oxypentyl]amino}-4-(4‴-iodophenylamino)cyclobut-3-ene-1,2-dione]	–
0.267	> 10	> 10	0.0879	209 to 210	–	–	–	–	–	–	–	–	–	roughly 6.1 fold	roughly 6.1 fold	O=c1cc(-c2ccccc2)c2ccc(OCCCCCNc3c(Nc4ccccc4)c(=O)c3=O)cc2o1 [Compound 16p, 3-Phenylamino-4-{[5′-(4″-Phenyl-2″-oxo-2″H-chromen-7″-yl)oxypentyl]amino}cyclobut-3-ene-1,2-dione]	–
0.057	> 10	> 10	0.0215	> 250	–	–	–	–	–	–	–	–	–	–	–	Cc1cc(=O)oc2cc(OCCCCCNc3c(Nc4ccc(I)cc4)c(=O)c3=O)ccc12 [Compound 16i, 3-[(4′-Iodophenyl)amino]-4-{[5″-(4‴-methyl-2‴-oxo-2‴H-chromen-7‴-yl)oxypentyl]amino}cyclobut-3-ene-1,2-dione]	–
